Our source for the GI50 and TGI values is PubChem BioAssay (NCI).

Molecules are shown by their SMILES.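 Exposure lasted 48 hours, with cells grown in 96-well plates and compounds tested at five concentrations. At the GI50, growth is halved. At the TGI there is no net growth.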

Some test systems named below: HCT-116 colon; UACC-62 melanoma; SW-620 colon; SK-OV-3 ovarian; LOX IMVI melanoma; ACHN renal; OVCAR-8 ovarian; HCC-2998 colon; SF-539 CNS; HCT-15 colon.
Holding throughout (experiment): NCI-60 cell line screen, 48 h

`CC1(C)N=C(N)N=C(N)N1c1cccc(CC(=O)Nc2ccccc2)c1`: the GI50 with HCT-116 colon was 4.28 µM; with UACC-62 melanoma, 8.3 µM; in the experiment on SW-620 colon, 4.56 µM; in the experiment with SK-OV-3 ovarian, greater than 100 µM; in the experiment with LOX IMVI melanoma, 4.41 µM; with ACHN renal, greater than 100 µM. Besides, the GI50 is 76.8 µM in the experiment with OVCAR-8 ovarian, 24 µM in the experiment on HCC-2998 colon, 10.5 µM with SF-539 CNS and greater than 100 µM with HCT-15 colon. Moreover, the TGI in the experiment on HCT-116 colon, in the experiment with UACC-62 melanoma, in the experiment on SW-620 colon, with SK-OV-3 ovarian, with LOX IMVI melanoma and in the experiment with ACHN renal was greater than 100 µM throughout. For the same molecule, the TGI in the experiment on OVCAR-8 ovarian, in the experiment with HCC-2998 colon, with SF-539 CNS and in the experiment on HCT-15 colon was greater than 100 µM throughout.
Take `COc1cc(CC2c3cc(OC)c(OC)cc3CCN2C)c(C(=O)O)cc1OC` (centres undefined): the TGI in the experiment on HCT-116 colon, in the experiment on UACC-62 melanoma, with SW-620 colon, in the experiment on SK-OV-3 ovarian, in the experiment on LOX IMVI melanoma and in the experiment on ACHN renal was greater than 100 µM throughout. Further, the TGI in the experiment with OVCAR-8 ovarian, in the experiment with HCC-2998 colon and in the experiment with SF-539 CNS was greater than 100 µM throughout.
`CC(=O)[O-].O=C([CH-]C(=O)c1ccccc1)c1ccccc1.O=C([CH-]C(=O)c1ccccc1)c1ccccc1.[Dy+3]`: the GI50 in the experiment on HCT-116 colon was 5.75 µM; in the experiment with UACC-62 melanoma, 9.15 µM; with SW-620 colon, 7.27 µM; in the experiment on SK-OV-3 ovarian, 16.9 µM; in the experiment with LOX IMVI melanoma, 12.4 µM; in the experiment on ACHN renal, 14.3 µM. The GI50 with OVCAR-8 ovarian was 4.78 µM; with HCC-2998 colon it was 11.6 µM; in the experiment with SF-539 CNS, 18.9 µM. Moreover, the TGI in the experiment with HCT-116 colon was 23.1 µM; in the experiment with UACC-62 melanoma it was 48.1 µM; in the experiment on SW-620 colon, greater than 100 µM; in the experiment with SK-OV-3 ovarian, 61.5 µM; in the experiment on LOX IMVI melanoma, 30.9 µM; in the experiment on ACHN renal, greater than 100 µM. Moreover, the figures for the TGI in the experiment on OVCAR-8 ovarian, with HCC-2998 colon and with SF-539 CNS were 36.5 µM, 36.2 µM and 56.1 µM, respectively.
On to `N#CC1(C2CC(=O)N(c3ccccc3)C2=O)CCCCC1=O` (centres undefined), for which the TGI with UACC-62 melanoma, with SW-620 colon, in the experiment with SK-OV-3 ovarian, with LOX IMVI melanoma, in the experiment with ACHN renal and with OVCAR-8 ovarian was greater than 100 µM each time. For the same molecule, the TGI with HCC-2998 colon, in the experiment with SF-539 CNS and in the experiment on HCT-15 colon was greater than 100 µM throughout.
With `CCn1nc(C#Cc2c(C)ccc3c(Nc4ccc(Cl)cc4)nccc23)c2c(N)ncnc21`, the GI50 in the experiment with HCT-116 colon was 2.11 µM; in the experiment with UACC-62 melanoma, 1.6 µM; in the experiment on SW-620 colon it was 2.99 µM; in the experiment on SK-OV-3 ovarian it was 4.38 µM; with LOX IMVI melanoma it was 1.81 µM; in the experiment with ACHN renal, 5.31 µM. Also, the GI50 with OVCAR-8 ovarian was 4.35 µM; in the experiment with HCC-2998 colon it was 7.57 µM; in the experiment with HCT-15 colon, 3.46 µM. Besides, the TGI with HCT-116 colon was greater than 100 µM; in the experiment on UACC-62 melanoma, 9.1 µM; with SW-620 colon, greater than 100 µM; in the experiment on SK-OV-3 ovarian it was greater than 100 µM; in the experiment on LOX IMVI melanoma it was greater than 100 µM; in the experiment on ACHN renal, greater than 100 µM. In addition, the TGI in the experiment with OVCAR-8 ovarian, in the experiment on HCC-2998 colon and in the experiment on HCT-15 colon was greater than 100 µM each time.
As for `Cc1n[nH]c(C)c1-c1c(C)n[nH]c1C`, the GI50 was 1.48 µM with HCT-116 colon; 1.56 µM with UACC-62 melanoma; 1.87 µM in the experiment on SW-620 colon; 1.57 µM in the experiment with LOX IMVI melanoma; 1.52 µM in the experiment on ACHN renal; 2.09 µM in the experiment on OVCAR-8 ovarian. Moreover, the GI50 with HCC-2998 colon is 1.96 µM; with SF-539 CNS it was 1.73 µM; with HCT-15 colon it was 1.83 µM. In addition, the TGI came to 3.01 µM in the experiment on HCT-116 colon; 3.42 µM in the experiment on UACC-62 melanoma; 4.38 µM in the experiment on SW-620 colon; 3.06 µM with LOX IMVI melanoma; 2.88 µM in the experiment with ACHN renal; 9.79 µM in the experiment on OVCAR-8 ovarian. The figures for the TGI in the experiment with HCC-2998 colon, with SF-539 CNS and in the experiment with HCT-15 colon were 3.82 µM, 3.35 µM and 4.53 µM, respectively.
For the molecule `CC[C@@]12CC(C(=O)OC)=C3Nc4ccccc4[C@@]34CCN(C[C@H]3O[C@H]31)[C@@H]24`, the GI50 was 43.8 µM with HCT-116 colon; 17.7 µM with UACC-62 melanoma; 35.9 µM in the experiment on SW-620 colon; 34.8 µM in the experiment with LOX IMVI melanoma; greater than 100 µM in the experiment with ACHN renal; greater than 100 µM in the experiment on OVCAR-8 ovarian. The GI50 with HCC-2998 colon was greater than 100 µM; in the experiment with SF-539 CNS, 61.2 µM; in the experiment with HCT-15 colon, 33.5 µM. Moreover, the TGI in the experiment on HCT-116 colon, in the experiment on UACC-62 melanoma, with SW-620 colon, with LOX IMVI melanoma, in the experiment with ACHN renal and in the experiment on OVCAR-8 ovarian was greater than 100 µM throughout. In addition, the TGI in the experiment on HCC-2998 colon, in the experiment on SF-539 CNS and in the experiment with HCT-15 colon was greater than 100 µM in each case.
Consider `O=C(CC1(O)C(=O)Nc2ccc(Br)cc21)c1cccc([N+](=O)[O-])c1` (centres undefined), for which the TGI with SW-620 colon, with SK-OV-3 ovarian, with LOX IMVI melanoma, in the experiment with ACHN renal, in the experiment with OVCAR-8 ovarian and in the experiment with HCC-2998 colon was greater than 100 µM throughout. In the experiment with HCT-15 colon, this molecule showed a TGI greater than 100 µM.
Regarding `CN(C)CCCn1c2c(c3ccc(N4CCNCC4)cc3c1=O)C(=O)c1ccccc1-2`, the GI50 was 1.03 µM in the experiment on UACC-62 melanoma; 0.164 µM in the experiment with SW-620 colon; 1.05 µM in the experiment on SK-OV-3 ovarian; 0.145 µM in the experiment on LOX IMVI melanoma; 0.392 µM in the experiment with ACHN renal; 0.403 µM with OVCAR-8 ovarian. In addition, the GI50 in the experiment on HCC-2998 colon was 0.352 µM; in the experiment on SF-539 CNS, 1.61 µM; in the experiment with HCT-15 colon, 0.728 µM. For the same molecule, the TGI in the experiment with UACC-62 melanoma was 2.52 µM; in the experiment on SW-620 colon, 1.61 µM; with SK-OV-3 ovarian, 3.51 µM; with LOX IMVI melanoma it was 0.481 µM; with ACHN renal, 2.63 µM; in the experiment with OVCAR-8 ovarian, 1.99 µM. Moreover, the values for the TGI in the experiment with HCC-2998 colon, with SF-539 CNS and in the experiment on HCT-15 colon were 1.71 µM, 3.16 µM and 3.04 µM, respectively.
Take `CCOc1ccc(/C=C/C(=O)c2sc(NNC(C)=O)nc2C)cc1`: the TGI with UACC-62 melanoma, with SW-620 colon, in the experiment with SK-OV-3 ovarian, in the experiment with LOX IMVI melanoma, in the experiment with ACHN renal and in the experiment on OVCAR-8 ovarian was greater than 100 µM each time. In addition, the TGI with HCC-2998 colon, with SF-539 CNS and in the experiment with HCT-15 colon was greater than 100 µM in each case.
